Data taken from US20260125417A1, “GLUCOCORTICOID RECEPTOR AGONISTS” (ELI LILLY AND COMPANY, priority 2022, published 2026).

Molecular target: T1, GR-LBD (Homo sapiens, UniProt P04150)
T1 construct: purchased Life Technologies A15899
T1 sequence (P04150 524-758 limits assumed): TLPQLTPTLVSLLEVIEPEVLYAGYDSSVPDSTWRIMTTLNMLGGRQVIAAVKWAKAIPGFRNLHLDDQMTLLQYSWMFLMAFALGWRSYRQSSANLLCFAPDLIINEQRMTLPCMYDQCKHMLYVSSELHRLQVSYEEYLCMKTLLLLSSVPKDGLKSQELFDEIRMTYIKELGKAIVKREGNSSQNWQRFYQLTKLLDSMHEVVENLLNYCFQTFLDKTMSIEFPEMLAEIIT
Assay: hGR CoActivator Recruitment Assay (LanthaScreen TR-Fret GR Coactivator Assay)
Format: biochemical
Details: Fluorescein-SRC1-4 recruitment to GR-LBD, 10-point dilution, top concentration 200 nM, positive control 4 μM dexamethasone
Description: Example 4. hGR CoActivator Recruitment Assay The activity of glucocorticoid compounds was measured using the LanthaScreen TR-Fret GR Coactivator Assay from Life Technologies (A15899). The compounds were acoustically transferred to an assay plate in a 3-fold 10-point serial dilution with atop concentration of 200 nM. Ten microliters of a 2× solution of GR-LBD was added to the compound plate and incubated for 10 min. Then ten microliters of a 2× solution of Fluoresein-SRC1-4 and Tb labelled anti-GST antibody were added to the plate. The plate was incubated in the dark for two hours and then read on an Envision plate reader, with excitation at 340 nm and emission at 520 nm (Fluorescein) and 490 nm (Terbium). The emission ratio of 520/490 was analyzed in Genedata. To obtain percent activity, the data was compared to a negative control of DMSO and positive control of 4 μM dexamethasone.

Compound	EC50 [nM]
COc1ccc(OCCc2cccc(N)c2)c(F)c1[C@H]1O[C@@H]2C[C@H]3[C@@H]4CCC5=CC(=O)C=C[C@]5(C)[C@H]4[C@@H](O)C[C@]3(C)[C@]2(C(=O)CO)O1 [compound 5, (6aR,6bS,7S,8aS,8bS,10S,11aR,12aS,12bS)-10-(3-(3-aminophenethoxy)-2-fluoro-6-methoxyphenyl)-7-hydroxy-8b-(2-hydroxyacetyl)-6a,8a-dimethyl-1,2,6a,6b,7,8,8a,8b,11a,12,12a,12b-dodecahydro-4H-naphtho[2′,1′:4,5]indeno[1,2-d][1,3]dioxol-4-one]	2.25
[2H]C([2H])([2H])Oc1ccc(OCc2cccc(N)c2)c(F)c1[C@H]1O[C@@H]2C[C@H]3[C@@H]4CCC5=CC(=O)C=C[C@]5(C)[C@H]4[C@@H](O)C[C@]3(C)[C@]2(C(=O)CO)O1 [Compound No. 1]	1.93
CCc1ccc(OCc2cccc(N)c2)c(F)c1[C@H]1O[C@@H]2C[C@H]3[C@@H]4CCC5=CC(=O)C=C[C@]5(C)[C@H]4[C@@H](O)C[C@]3(C)[C@]2(C(=O)CO)O1 [compound 2, (6aR,6bS,7S,8aS,8bS,10S,11aR,12aS,12bS)-10-(3-((3-aminobenzyl)oxy)-6-ethyl-2-fluorophenyl)-7-hydroxy-8b-(2-hydroxyacetyl)-6a,8a-dimethyl-1,2,6a,6b,7,8,8a,8b,11a,12,12a,12b-dodecahydro-4H-naphtho[2′,1′:4,5]indeno[1,2-d][1,3]dioxol-4-one]	1.52

Next, values leading:

EC50 [nM]	Compound
1.48	COc1ccc(OCCc2ccc(N)cc2)c(F)c1[C@H]1O[C@@H]2C[C@H]3[C@@H]4CCC5=CC(=O)C=C[C@]5(C)[C@H]4[C@@H](O)C[C@]3(C)[C@]2(C(=O)CO)O1 [compound 4, (6aR,6bS,7S,8aS,8bS,10S,11aR,12aS,12bS)-10-(3-(4-aminophenethoxy)-2-fluoro-6-methoxyphenyl)-7-hydroxy-8b-(2-hydroxyacetyl)-6a,8a-dimethyl-1,2,6a,6b,7,8,8a,8b,11a,12,12a,12b-dodecahydro-4H-naphtho[2′,1′:4,5]indeno[1,2-d][1,3]dioxol-4-one]
1.65	COc1ccc(CCc2ccc(N)cc2)c(F)c1[C@H]1O[C@@H]2C[C@H]3[C@@H]4CCC5=CC(=O)C=C[C@]5(C)[C@H]4[C@@H](O)C[C@]3(C)[C@]2(C(=O)CO)O1 [compound 3, (6aR,6bS,7S,8aS,8bS,10S,11aR,12aS,12bS)-10-(3-(4-aminophenethyl)-2-fluoro-6-methoxyphenyl)-7-hydroxy-8b-(2-hydroxyacetyl)-6a,8a-dimethyl-1,2,6a,6b,7,8,8a,8b,11a,12,12a,12b-dodecahydro-4H-naphtho[2′,1′:4,5]indeno[1,2-d][1,3]dioxol-4-one]
